Reference: US20110183991A1, “5HT7 RECEPTOR LIGANDS AND COMPOSITIONS COMPRISING THE SAME” (LABORATORIOS DEL DR. ESTEVE, S.A., priority 2008, published 2011)
Where two headings read alike, the source gives them in different places.

Tests used:
5HT7 receptor = 5HT7 receptor (Homo sapiens, UniProt P34969); test: 5HT7 agonist functionality (EC50 agonist); format: cell-based; conditions: screening data, agonist reference hit
[1] = biological target: T1, Cloned Human Serotonin Receptor, Subtype 7 (h5HT7), expressed in CHO cells (Homo sapiens, UniProt P34969); test: Radioligand binding assay, [125I]LSD, cloned human 5HT7 receptor on Flashplate
T1 construct: purchased PerkinElmer 6120512; host or cells: CHO cells
T1 sequence (P34969 whole entry): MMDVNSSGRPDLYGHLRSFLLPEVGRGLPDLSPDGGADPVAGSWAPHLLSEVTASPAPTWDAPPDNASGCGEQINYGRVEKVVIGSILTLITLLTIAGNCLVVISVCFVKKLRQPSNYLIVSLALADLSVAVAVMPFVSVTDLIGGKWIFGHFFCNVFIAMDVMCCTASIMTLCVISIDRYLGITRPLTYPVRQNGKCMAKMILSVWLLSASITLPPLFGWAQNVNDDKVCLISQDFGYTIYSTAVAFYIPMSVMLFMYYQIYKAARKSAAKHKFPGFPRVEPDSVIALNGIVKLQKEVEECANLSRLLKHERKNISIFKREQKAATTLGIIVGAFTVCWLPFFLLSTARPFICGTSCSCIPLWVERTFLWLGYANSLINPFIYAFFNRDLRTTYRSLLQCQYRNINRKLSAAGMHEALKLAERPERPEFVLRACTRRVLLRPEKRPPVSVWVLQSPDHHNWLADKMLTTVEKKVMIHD
Method: The protocol assay was essentially the recommended protocol in the Technical Data Sheet by PerkinEmer Life and Analytical Sciences. The Mass membrane protein/well was typically 12 μg and the Receptor/well was about 9-10 fmoles. The Flashplate were let equilibrate at room temperature for one hour before the addition of the components of the assay mixture. The binding buffer was: 50 mM Tris-HCl, pH 7.4, containing 10 mM MgCl2, 0.5 mM EDTA and 0.5% BSA. […] Nonspecific binding was determined with 50 μM of Clozapine. The assay volume was 25 μl. TopSeal-A were applied onto Flashplate microplates and they were incubated at room temperature for 240 minutes in darkness.

[2] = 5HT7 binding experiments on the screening selection

5HT7 receptor, sequence (P34969 whole entry): as above

Structure (SMILES) | EC50 (5HT7 receptor) [nM] | affinity for the 5HT7 receptor (in words) [1] | affinity for the 5HT7 receptor (in words) [1, 2]
COc1ccc(C(C)C)cc1CN1CCN(c2cccc3[nH]ccc23)CC1 [Ex 29, 4-(4-(5-isopropyl-2-methoxybenzyl)piperazin-1-yl)-1H-indole] | 6.62 | good affinity | –
COc1ccccc1N1CCN(CCC(=O)Nc2ccc3c(c2)CCC3)CC1 [f, N-(2,3-dihydro-1H-inden-5-yl)-3-(4-(2-methoxyphenyl)piperazin-1-yl)propanamide] | – | – | good affinity
O=c1[nH]c2ccccc2n1C1=CCN(CCCOc2ccccc2)CC1 [j, 1-(1-(3-phenoxypropyl)-1,2,3,6-tetrahydropyridin-4-yl)-1H-benzo[d]imidazol-2(3H)-one] | – | good affinity | –
O=c1[nH]c2ccccc2n1C1=CCN(CCOc2ccccc2)CC1 [k, 1-(1-(2-phenoxyethyl)-1,2,3,6-tetrahydropyridin-4-yl)-1H-benzo[d]imidazol-2(3H)-one] | – | – | good affinity
O=C(c1cccs1)C1CN2CCC1CC2 (stereo not drawn) [l, quinuclidin-3-yl(thiophen-2-yl)methanone] | – | good affinity | –
